Assay results reported in the NIST ThermoML archive (doi:10.1021/je0601208).

Columns and labels:
[1] = xn = mol fraction of the nth substance listed
[2] = refractive index (Na D-line) (dimensionless); xn = mol fraction of the nth substance listed; conditions: 100.5 kPa, Liquid, Standard Abbe refractometry

CCCCCC(=O)OCC [ethyl hexanoate] + CCO
Conditions	refractive index, 288.15 K	refractive index, 298.15 K	refractive index, 308.15 K	refractive index, 318.15 K	surface tension liquid-gas, 288.15 K [mN/m]	surface tension liquid-gas, 298.15 K [mN/m]	surface tension liquid-gas, 308.15 K [mN/m]	surface tension liquid-gas, 318.15 K [mN/m]
[1], x1 = 0.05	–	–	–	–	23.4	22.7	21.8	20.9
[1], x1 = 0.1	–	–	–	–	23.8	23	22.1	21.2
[1], x1 = 0.15	–	–	–	–	24.1	23.2	22.4	21.5
[1], x1 = 0.2	–	–	–	–	24.3	23.5	22.6	21.7
[1], x1 = 0.25	–	–	–	–	24.5	23.7	22.8	21.9
[1], x1 = 0.3	–	–	–	–	24.7	23.9	23	22
[1], x1 = 0.35	–	–	–	–	24.9	24	23.1	22.2
[1], x1 = 0.4	–	–	–	–	25.1	24.2	23.3	22.3
[1], x1 = 0.45	–	–	–	–	25.2	24.3	23.4	22.5
[1], x1 = 0.5	–	–	–	–	25.4	24.4	23.5	22.6
[1], x1 = 0.55	–	–	–	–	25.5	24.5	23.6	22.7
[1], x1 = 0.6	–	–	–	–	25.6	24.6	23.7	22.8
[1], x1 = 0.65	–	–	–	–	25.7	24.7	23.8	22.9
[1], x1 = 0.7	–	–	–	–	25.8	24.9	23.9	23
[1], x1 = 0.75	–	–	–	–	25.9	25	24	23.1
[1], x1 = 0.8	–	–	–	–	26	25.1	24.1	23.2
[1], x1 = 0.85	–	–	–	–	26.1	25.1	24.2	23.3
[1], x1 = 0.9	–	–	–	–	26.2	25.2	24.3	23.4
[1], x1 = 0.95	–	–	–	–	26.3	25.3	24.4	23.5
[1], x1 = 1	–	–	–	–	26.4	25.4	24.5	23.6
[2], x1 = 0.05	1.36942	1.36535	1.36109	1.35703	–	–	–	–
[2], x1 = 0.1	1.37451	1.37034	1.36602	1.36185	–	–	–	–
[2], x1 = 0.15	1.37883	1.37461	1.37024	1.36601	–	–	–	–
[2], x1 = 0.2	1.38253	1.37826	1.37388	1.3696	–	–	–	–
[2], x1 = 0.25	1.38577	1.38146	1.37706	1.37274	–	–	–	–
[2], x1 = 0.3	1.38864	1.38429	1.37986	1.3755	–	–	–	–
[2], x1 = 0.35	1.39119	1.38681	1.38236	1.37795	–	–	–	–
[2], x1 = 0.4	1.39347	1.38907	1.3846	1.38016	–	–	–	–
[2], x1 = 0.45	1.39553	1.39111	1.38663	1.38216	–	–	–	–
[2], x1 = 0.5	1.3974	1.39296	1.38847	1.38398	–	–	–	–
[2], x1 = 0.55	1.3991	1.39465	1.39016	1.38564	–	–	–	–
[2], x1 = 0.6	1.40066	1.3962	1.3917	1.38716	–	–	–	–
[2], x1 = 0.65	1.4021	1.39763	1.39312	1.38857	–	–	–	–
[2], x1 = 0.7	1.40343	1.39895	1.39444	1.38988	–	–	–	–
[2], x1 = 0.75	1.40466	1.40019	1.39568	1.39111	–	–	–	–
[2], x1 = 0.8	1.40579	1.40133	1.39682	1.39225	–	–	–	–
[2], x1 = 0.85	1.40684	1.40238	1.39787	1.3933	–	–	–	–
[2], x1 = 0.9	1.4078	1.40334	1.39882	1.39426	–	–	–	–
[2], x1 = 0.95	1.40868	1.40422	1.39972	1.39515	–	–	–	–
[2], x1 = 1	1.4095	1.40504	1.40055	1.39597	–	–	–	–
